System: NOMO1
Test: cell viability relative to DMSO control; higher = less cytotoxic
Conditions: 48 h
Procedure, shortened: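 Viability values are per-plate percentages of DMSO wells, with background from cell-free wells. Library compounds in DMSO were pin-dosed, in an 11-point threefold series from 47 μM to 0.79 nM, onto NOMO1 or SEM (500 cells/well) or P12-Ichikawa (1000 cells/well) leukemia cells in 1536-well plates (5 μl). Those cells had been adapted for at least four passages in each medium, and CellTiter-Glo One luminescence was read after 48 h at 37°C.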

[1] = HPLM + 10% dialyzed FBS, 0.000781 µM
[2] = HPLM + 10% dialyzed FBS, 0.00234 µM
[3] = HPLM + 10% dialyzed FBS, 0.00702 µM
[4] = HPLM + 10% dialyzed FBS, 0.0211 µM
[5] = HPLM + 10% dialyzed FBS, 0.0632 µM
[6] = HPLM + 10% dialyzed FBS, 0.19 µM
[7] = HPLM + 10% dialyzed FBS, 0.569 µM
[8] = HPLM + 10% dialyzed FBS, 1.71 µM
[9] = HPLM + 10% dialyzed FBS, 5.12 µM
[10] = HPLM + 10% dialyzed FBS, 15.4 µM
[11] = HPLM + 10% dialyzed FBS, 46.1 µM
[12] = RPMI 5 mM glucose + 10% FBS, 0.000781 µM
[13] = RPMI 5 mM glucose + 10% FBS, 0.00234 µM
[14] = RPMI 5 mM glucose + 10% FBS, 0.00702 µM
[15] = RPMI 5 mM glucose + 10% FBS, 0.0211 µM
[16] = RPMI 5 mM glucose + 10% FBS, 0.0632 µM
[17] = RPMI 5 mM glucose + 10% FBS, 0.19 µM
[18] = RPMI 5 mM glucose + 10% FBS, 0.569 µM
[19] = RPMI 5 mM glucose + 10% FBS, 1.71 µM
[20] = RPMI 5 mM glucose + 10% FBS, 5.12 µM
[21] = RPMI 5 mM glucose + 10% FBS, 15.4 µM
[22] = RPMI 5 mM glucose + 10% FBS, 46.1 µM
[23] = RPMI 5 mM glucose + 10% dialyzed FBS, 0.000781 µM
[24] = RPMI 5 mM glucose + 10% dialyzed FBS, 0.00234 µM
[25] = RPMI 5 mM glucose + 10% dialyzed FBS, 0.00702 µM
[26] = RPMI 5 mM glucose + 10% dialyzed FBS, 0.0211 µM
[27] = RPMI 5 mM glucose + 10% dialyzed FBS, 0.0632 µM
[28] = RPMI 5 mM glucose + 10% dialyzed FBS, 0.19 µM
[29] = RPMI 5 mM glucose + 10% dialyzed FBS, 0.569 µM
[30] = RPMI 5 mM glucose + 10% dialyzed FBS, 1.71 µM
[31] = RPMI 5 mM glucose + 10% dialyzed FBS, 5.12 µM
[32] = RPMI 5 mM glucose + 10% dialyzed FBS, 15.4 µM
[33] = RPMI 5 mM glucose + 10% dialyzed FBS, 46.1 µM

Compound	cell viability [1]	cell viability [2]	cell viability [3]	cell viability [4]	cell viability [5]	cell viability [6]	cell viability [7]	cell viability [8]	cell viability [9]	cell viability [10]	cell viability [11]	cell viability [12]	cell viability [13]	cell viability [14]	cell viability [15]	cell viability [16]	cell viability [17]	cell viability [18]	cell viability [19]	cell viability [20]	cell viability [21]	cell viability [22]	cell viability [23]	cell viability [24]	cell viability [25]	cell viability [26]	cell viability [27]	cell viability [28]	cell viability [29]	cell viability [30]	cell viability [31]	cell viability [32]	cell viability [33]
O=C(O)c1nn(Cc2ccc(Cl)cc2Cl)c2ccccc12	112%	116%	106%	100%	78.3%	83.8%	71.2%	61.8%	92.3%	76.5%	69.9%	86.1%	76.6%	78.1%	83.8%	96.7%	81.7%	75.5%	83.8%	85.4%	79.5%	74%	79.9%	89.7%	97.4%	94.2%	91.1%	85.6%	73.8%	75.3%	83.2%	81.2%	76.1%
CNC(=O)c1ccccc1Sc1ccc2c(/C=C/c3ccccn3)n[nH]c2c1												108%	116%	107%	115%	118%	105%	112%	91.5%	74.8%	68.8%	84.2%	103%	119%	123%	109%	104%	100%	107%	74.9%	74.8%	68.8%	67.9%
COC1=CC=CC(=C1/C2=N/CC3=C(N=C(NC4=CC(=C(C=C4)C(O)=O)OC)N=C3)C5=CC=C(Cl)C=C25)F	78.5%	88.3%	78.9%	88.2%	76.3%	38.6%	53.4%	48.3%	58.6%	62%	51.6%	70.8%	80.6%	77.2%	84%	71.4%	28.4%	48.8%	46.5%	49.8%	53.6%	61.8%	82.2%	77.5%	72.9%	82.2%	63.7%	51.9%	49.4%	48.2%	49%	50.5%	61%

Source: the supplement of paper PMC11451515
